Here are results for two compounds from article PMC10099813, “Stafiba: A STAT5‐Selective Small‐Molecule Inhibitor” (Chembiochem, 2022).

Molecules are shown by their SMILES.

Experiment [1] addresses T1, STAT5b (Homo sapiens, UniProt P51692).
T1 sequence (P51692 1-787): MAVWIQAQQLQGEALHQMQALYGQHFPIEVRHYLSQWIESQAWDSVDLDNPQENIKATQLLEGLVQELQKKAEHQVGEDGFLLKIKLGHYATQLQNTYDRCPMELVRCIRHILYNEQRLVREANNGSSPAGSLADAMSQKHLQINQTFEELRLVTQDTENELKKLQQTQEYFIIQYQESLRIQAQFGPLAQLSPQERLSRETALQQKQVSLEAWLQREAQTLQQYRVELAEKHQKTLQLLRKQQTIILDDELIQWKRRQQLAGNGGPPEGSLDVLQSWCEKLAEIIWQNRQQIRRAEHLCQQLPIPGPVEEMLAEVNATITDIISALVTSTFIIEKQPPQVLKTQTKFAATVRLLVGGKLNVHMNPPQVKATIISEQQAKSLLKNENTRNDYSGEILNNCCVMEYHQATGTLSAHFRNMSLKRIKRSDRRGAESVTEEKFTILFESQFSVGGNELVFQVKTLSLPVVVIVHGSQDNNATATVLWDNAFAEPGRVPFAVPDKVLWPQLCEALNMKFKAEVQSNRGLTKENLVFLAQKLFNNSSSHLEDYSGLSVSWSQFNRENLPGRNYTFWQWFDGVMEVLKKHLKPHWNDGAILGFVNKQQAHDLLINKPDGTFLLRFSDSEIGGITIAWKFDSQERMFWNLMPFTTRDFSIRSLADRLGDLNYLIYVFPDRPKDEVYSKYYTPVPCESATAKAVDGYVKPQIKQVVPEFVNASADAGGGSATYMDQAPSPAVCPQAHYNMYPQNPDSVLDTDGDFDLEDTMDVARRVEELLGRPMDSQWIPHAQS
Description: Competitive fluorescence polarization (FP) binding assay, STAT5b SH2 domain. Particulars: for Ki / IC50: FP assay, 2 % DMSO (10 % DMSO for 10); for Ki: Ki calculated from IC50 (n=3) via published equation; for IC50: n=3; for selectivity for STAT5b over STAT1, STAT3, and STAT6: FP assays. On the procedure: (§1) Fluorescence polarization assays: Competitive binding assays based on fluorescence polarization were carried out essentially as previously described.[[4a]] Unless stated otherwise, final concentrations of the buffer components were: 10 mM Tris (pH 8.0), 50 mM NaCl, 1 mM EDTA, 1 mM DTT, 0.1 % (v/v) Nonidet P‐40 substitute, and 2 % DMSO. Proteins were used at concentrations which reflect the Kd values of the interactions between the fluoropeptide and the protein preparations. Protein concentrations used for activity analysis of compound 5 were 91 nM for STAT1, 107 nM for STAT3, 28 nM for STAT4, 122 nM for STAT5a, 56 nM for STAT5b and 101 nM for STAT6. Protein concentrations used for activity analysis of AC‐4‐130 were 103 nM for STAT5a and 62 nM for STAT5b. […] Final concentration of all fluorescent‐labelled peptides was 10 nM. The following peptides were used in assays: 5‐carboxyfluorescein‐GpYDKPHVL for STAT1; 5‐carboxyfluorescein‐GpYLPQTV‐NH2 for STAT3; 5‐carboxyfluorescein‐GpYLPQNID for STAT4; 5‐carboxyfluorescein‐GpYLVLDKW for STAT5a/5b, and 5‐carboxyfluorescein‐GpYVPWQDLI for STAT6. Protein and test compounds were incubated for 1 h prior to addition of the fluorescein‐labeled peptide. Fluorescence polarization was measured after another 60 min using an Infinite F500 plate reader (Tecan). IC50 values were converted to Ki‐values using the published equation.[13]

Experiment [2] deals with T2, STAT1 (Homo sapiens, UniProt P42224).
T2 sequence (P42224 1-750): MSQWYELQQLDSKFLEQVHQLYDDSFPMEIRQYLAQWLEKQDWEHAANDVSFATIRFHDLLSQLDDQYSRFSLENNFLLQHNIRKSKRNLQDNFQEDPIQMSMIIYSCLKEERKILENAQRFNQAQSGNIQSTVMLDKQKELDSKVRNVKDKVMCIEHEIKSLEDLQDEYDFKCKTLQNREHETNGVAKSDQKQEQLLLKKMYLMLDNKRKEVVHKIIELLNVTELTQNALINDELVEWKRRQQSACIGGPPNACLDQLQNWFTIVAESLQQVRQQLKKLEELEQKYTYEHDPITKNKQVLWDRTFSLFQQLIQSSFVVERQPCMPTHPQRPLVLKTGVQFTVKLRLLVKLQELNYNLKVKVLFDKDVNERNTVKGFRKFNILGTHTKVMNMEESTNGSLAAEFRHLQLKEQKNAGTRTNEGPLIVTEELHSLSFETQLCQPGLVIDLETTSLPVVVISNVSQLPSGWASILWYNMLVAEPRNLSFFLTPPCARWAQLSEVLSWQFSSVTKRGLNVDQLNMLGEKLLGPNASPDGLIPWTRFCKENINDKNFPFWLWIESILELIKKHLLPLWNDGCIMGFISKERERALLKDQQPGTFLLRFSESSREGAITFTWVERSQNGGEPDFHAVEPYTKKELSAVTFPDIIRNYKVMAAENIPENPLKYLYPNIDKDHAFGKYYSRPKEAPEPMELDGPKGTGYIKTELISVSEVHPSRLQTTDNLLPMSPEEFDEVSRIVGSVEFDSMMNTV
Description: Competitive fluorescence polarization (FP) binding assay, STAT1. The settings on record: for IC50: 2 % DMSO for 5, 10 % DMSO for 10; for Ki: Ki calculated from IC50, 2 % DMSO for 5, 10 % DMSO for 10. As for the experimental part: as §1

By Ki is commonly meant a measure of affinity in units of concentration, obtained from inhibition or displacement. As a reminder, the IC50 is the midpoint of a concentration-inhibition curve. Lower therefore signals greater potency in that assay. Turning to `O=C(CNc1ccc(C(=O)Nc2ccc(Oc3ccccc3)cc2)cc1)NCc1cc(C(F)(F)P(=O)(O)O)c(F)c(C(F)(F)P(=O)(O)O)c1` [compound 10], in experiment [1], the inhibition constant Ki was 1800 ± 100 nM; the 50% inhibitory concentration (IC50) was 3.7 ± 0.2 µM; the “selectivity for STAT5b over STAT1, STAT3, and STAT6” value is recorded as 10–20 fold. Besides, in experiment [1] (Figure 5C), the “activity compared with AC-4-130 in FP assay against the SH2 domain of STAT5b” value is “substantially more active than AC‐4‐130”. Besides, in experiment [2], the IC50 was determined as 53.8 ± 1.6 µM and the Ki is 26 ± 0.8 µM.

For the compound `O=C(CNc1ccc(C(=O)Nc2ccc(Oc3ccccc3)cc2)cc1)NCc1cc(OP(=O)(O)O)cc(OP(=O)(O)O)c1` [compound 5], in experiment [1], the Ki is 1500 ± 100 nM; the IC50 amounted to 3.1 ± 0.3 µM; the “selectivity for STAT5b over STAT1, STAT3, and STAT6” value is “more than tenfold”. Also, in experiment [2], the IC50 worked out at 70.4 ± 3.1 µM and the Ki was 34.6 ± 1.5 µM.
